Broadly, the IC50 is the concentration at which inhibition is half-maximal.

For 5 compounds, IC50 results are on record in patent publication US9604961B2, “Histone demethylase inhibitors” (Celgene Quanticel Research, Inc., priority 2012, dated 2017).

One test concerns the target Jarid1B (Homo sapiens (Human), UniProt Q9UGL1). The test can be described thus: Jarid1B in vitro enzyme inhibition assay (TR-FRET). It counts as biochemical. (In general: TR-FRET usually uses a lanthanide donor and a delayed reading to cut background.)
A further test has as its system KDM5A/B. Kind of test: In vitro cell-based assay: quantitative immuno-blotting of tri-methyl H3K4 in ZR-75-1 breast cancer cells. The conditions noted are these: Homo sapiens, 72 hours exposure, read-out: Cellular IC50. The text has this:
This quantitative immuno-blotting assay measures the amount tri-methylated histone H3 at amino acid Lysine number 4, a specific substrate […] of the direct enzymatic activity of the histone demethylases KDM5A and KDM5B from extracts of the ZR-75-1 breast cancer cell line.
This assay is a fluorometric immunoassay for the quantification of tri-methyl H3K4 extracted from cells treated with test compound and is used as a measure of the cellular inhibition of KDM5A/B.
ZR-75-1 (PTEN null, ER+) breast cancer cells numbering 50,000 (ATCC) were seeded into each well of a 96-well tissue culture treated plate and then exposed to an 11 point dilution of test compound with final concentration ranges of test compound ranging from […] to 10 nM. […] Extracts were prepared containing all of the cellular histone material using detergent based lysis and sonication methods. These lysates were subsequently normalized for total protein content using a colorimetric bicinchonic acid assay (MicroBCA Pierce/Thermo Scientific). Normalized cell extracts were then subjected to typical immuno-blotting procedures using NuPage reagents (Life Technologies). Electrophoretically separated histones were then transferred and immobilized using polyvinylidene difluoride membrane (Immobilon-FL Millipore). The amount of tri-methylated lysine 4 of histone H3 was detected using an antibody specific to the tri-methylated state (Cell Signaling Technologies) and quantified on an infrared imager using a densitometry software package (Odyssey CLx, Image Studio, Li-Cor). This background subtracted densitometry value was reported as a ration of the GAPDH amount for that sample and then calculated as a percent of the DMSO treated sample. The software package XL-fit (IDBS) was then used to calculate a relative IC50 value for the dilution series of a given test compound according to the equation: fit=(D+((Vmax*(x^n))/((x^n)+(Km^n)))).

For a further test, the target named is Jarid1A (Homo sapiens (Human), UniProt P29375). Kind of test: Jarid1A in vitro enzyme inhibition assay (TR-FRET). The format is biochemical. The text has this: The enzymatic assay of Jarid1A activity is based upon Time Resolved-Fluorescence Resonance Energy Transfer (TR-FRET) detection.
The target in the next test is FBXL10 (Homo sapiens (Human), UniProt Q8NHM5). The test can be described thus: FBXL10 in vitro enzyme inhibition assay (AlphaScreen). The format is biochemical. An outline of the steps:
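AlphaScreen read-out of H3K36me1 product, detected with anti-H3K36me1 antibody plus streptavidin donor and Protein A acceptor beads (final 10 μg/ml) in 50 mM HEPES pH 7.3, 10 mM NaCl, 0.005% Brij35, 5 mM EDTA, 2 mg/ml BSA. Beads incubated 2 h to overnight at room temperature; IC50 derived from AlphaScreen signal.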

A further test deals with JMJD2C (Homo sapiens (Human), UniProt Q9H3R0). Kind of test: JMJD2C in vitro enzyme inhibition assay (TR-FRET). The format is biochemical.
The target of a further test is JMJD2A (Homo sapiens (Human), UniProt O75164). Kind of test: JMJD2A in vitro enzyme inhibition assay (TR-FRET). As to conditions: read-out: JMJD2A IC50.

A value given as a limit tells only on which side of the number the result lay.

Chain of JMJD2C (Q9H3R0 2-372): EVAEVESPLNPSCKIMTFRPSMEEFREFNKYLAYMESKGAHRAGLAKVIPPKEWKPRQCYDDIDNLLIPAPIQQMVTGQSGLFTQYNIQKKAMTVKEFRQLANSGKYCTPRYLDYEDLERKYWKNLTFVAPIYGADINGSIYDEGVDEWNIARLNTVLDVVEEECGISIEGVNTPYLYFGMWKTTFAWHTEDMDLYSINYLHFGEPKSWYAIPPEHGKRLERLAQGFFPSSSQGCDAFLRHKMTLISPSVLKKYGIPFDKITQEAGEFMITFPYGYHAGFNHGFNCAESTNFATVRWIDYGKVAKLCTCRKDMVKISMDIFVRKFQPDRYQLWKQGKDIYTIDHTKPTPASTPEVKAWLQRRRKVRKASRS
Chain of Jarid1A (P29375 1-1090): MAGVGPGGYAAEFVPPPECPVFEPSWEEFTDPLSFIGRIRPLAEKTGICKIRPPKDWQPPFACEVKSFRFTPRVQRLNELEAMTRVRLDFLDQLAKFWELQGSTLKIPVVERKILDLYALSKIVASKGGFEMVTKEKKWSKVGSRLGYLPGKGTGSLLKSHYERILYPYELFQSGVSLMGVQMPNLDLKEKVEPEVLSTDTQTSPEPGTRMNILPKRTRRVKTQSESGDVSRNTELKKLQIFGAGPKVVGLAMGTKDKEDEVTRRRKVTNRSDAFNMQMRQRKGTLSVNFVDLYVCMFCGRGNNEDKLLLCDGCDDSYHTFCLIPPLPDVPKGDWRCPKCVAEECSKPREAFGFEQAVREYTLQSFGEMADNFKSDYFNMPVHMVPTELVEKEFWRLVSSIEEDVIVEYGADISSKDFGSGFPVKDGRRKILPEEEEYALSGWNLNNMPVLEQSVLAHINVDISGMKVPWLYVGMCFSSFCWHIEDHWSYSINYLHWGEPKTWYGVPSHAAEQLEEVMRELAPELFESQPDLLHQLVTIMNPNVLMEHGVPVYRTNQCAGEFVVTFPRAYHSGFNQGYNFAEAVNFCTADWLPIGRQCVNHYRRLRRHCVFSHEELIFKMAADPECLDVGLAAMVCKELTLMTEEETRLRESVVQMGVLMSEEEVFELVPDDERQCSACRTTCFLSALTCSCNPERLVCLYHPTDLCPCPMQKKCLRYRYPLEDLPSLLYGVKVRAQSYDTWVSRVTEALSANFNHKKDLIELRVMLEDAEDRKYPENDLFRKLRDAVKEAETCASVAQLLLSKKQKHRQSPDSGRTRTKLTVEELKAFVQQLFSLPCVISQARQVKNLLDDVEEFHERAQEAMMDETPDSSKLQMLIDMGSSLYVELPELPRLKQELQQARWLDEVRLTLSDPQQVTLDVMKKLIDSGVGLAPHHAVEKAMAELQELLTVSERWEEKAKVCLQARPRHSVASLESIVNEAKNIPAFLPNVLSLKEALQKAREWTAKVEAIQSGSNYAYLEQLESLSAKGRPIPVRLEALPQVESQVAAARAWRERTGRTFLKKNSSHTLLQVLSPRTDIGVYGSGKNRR
Chain of FBXL10 (Q8NHM5 1-650): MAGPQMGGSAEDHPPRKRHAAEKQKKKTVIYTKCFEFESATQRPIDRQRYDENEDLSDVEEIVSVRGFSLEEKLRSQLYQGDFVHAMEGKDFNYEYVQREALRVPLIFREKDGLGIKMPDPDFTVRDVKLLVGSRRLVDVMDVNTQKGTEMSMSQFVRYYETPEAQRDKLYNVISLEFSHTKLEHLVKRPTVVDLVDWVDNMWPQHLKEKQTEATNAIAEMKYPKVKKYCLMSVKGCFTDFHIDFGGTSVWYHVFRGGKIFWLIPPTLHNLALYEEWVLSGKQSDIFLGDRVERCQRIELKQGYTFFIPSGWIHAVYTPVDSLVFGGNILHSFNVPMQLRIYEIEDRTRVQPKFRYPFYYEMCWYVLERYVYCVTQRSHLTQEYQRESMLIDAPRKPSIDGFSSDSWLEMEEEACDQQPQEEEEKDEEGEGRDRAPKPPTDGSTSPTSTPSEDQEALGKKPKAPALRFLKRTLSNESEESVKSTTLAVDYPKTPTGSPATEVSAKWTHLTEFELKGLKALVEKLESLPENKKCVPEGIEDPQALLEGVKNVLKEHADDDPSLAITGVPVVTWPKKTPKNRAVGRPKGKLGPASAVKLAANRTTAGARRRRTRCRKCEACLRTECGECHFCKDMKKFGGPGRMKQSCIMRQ
Chain of Jarid1B (Q9UGL1 2-751): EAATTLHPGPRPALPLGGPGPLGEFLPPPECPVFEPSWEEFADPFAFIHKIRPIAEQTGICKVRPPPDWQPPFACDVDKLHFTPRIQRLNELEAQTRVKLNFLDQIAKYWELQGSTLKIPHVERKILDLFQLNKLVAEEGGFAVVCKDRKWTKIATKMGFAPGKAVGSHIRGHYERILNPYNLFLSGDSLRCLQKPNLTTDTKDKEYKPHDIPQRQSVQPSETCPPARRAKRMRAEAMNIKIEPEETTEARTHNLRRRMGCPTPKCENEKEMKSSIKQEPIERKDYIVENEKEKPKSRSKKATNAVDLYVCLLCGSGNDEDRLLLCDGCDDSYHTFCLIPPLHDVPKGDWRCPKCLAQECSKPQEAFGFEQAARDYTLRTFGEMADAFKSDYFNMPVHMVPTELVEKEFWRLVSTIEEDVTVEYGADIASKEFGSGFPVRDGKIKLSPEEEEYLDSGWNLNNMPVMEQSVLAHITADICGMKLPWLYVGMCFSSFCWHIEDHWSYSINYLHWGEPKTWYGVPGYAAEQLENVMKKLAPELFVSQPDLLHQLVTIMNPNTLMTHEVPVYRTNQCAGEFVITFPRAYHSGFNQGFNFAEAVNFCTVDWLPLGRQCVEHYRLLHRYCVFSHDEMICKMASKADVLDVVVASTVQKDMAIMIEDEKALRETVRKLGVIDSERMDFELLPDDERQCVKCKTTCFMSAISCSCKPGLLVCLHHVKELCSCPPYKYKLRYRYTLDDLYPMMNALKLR
Chain of JMJD2A (O75164 1-350): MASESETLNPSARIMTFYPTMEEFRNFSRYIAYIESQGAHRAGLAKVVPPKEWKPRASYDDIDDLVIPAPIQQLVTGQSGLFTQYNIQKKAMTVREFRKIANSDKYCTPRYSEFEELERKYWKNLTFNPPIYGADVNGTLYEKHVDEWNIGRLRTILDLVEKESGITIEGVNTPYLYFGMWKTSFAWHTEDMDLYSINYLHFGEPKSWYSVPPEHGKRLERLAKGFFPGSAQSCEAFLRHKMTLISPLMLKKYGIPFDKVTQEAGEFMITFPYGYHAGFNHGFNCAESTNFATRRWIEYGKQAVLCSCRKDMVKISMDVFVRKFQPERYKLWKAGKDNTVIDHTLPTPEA
Protocol for JMJD2A: This assay determines the ability of a test compound to inhibit Jarid1A, Jarid1B, JMJD2C, and JMJD2A demethylase activity.
Reaction product was determined quantitatively by TR-FRET after the addition of detection reagent Phycolink Streptavidin-allophycocyanin (Prozyme) and Europium-anti-di-methylated histone H3 lysine 9 (H3K9me2) antibody (PerkinElmer) in the presence of 5 mM EDTA in LANCE detection buffer (PerkinElmer) at a final concentration of 50 nM and 1 nM, respectively.
The assay reaction was initiated by the following: 2 μl of the mixture of 900 nM H3K9me3-biotin labeled peptide and 6 μM alpha-ketoglutaric acid with 2 μl of 11-point serial diluted inhibitor in 3% DMSO were added to each well of plate, followed by the addition of 2 μl of 6 nM JMJD2A to initiate the reaction. The reaction mixture was incubated at room temperature for 30 minutes, and terminated by the addition of 6 μl of 5 mM EDTA in LANCE detection buffer containing 100 nM Phycolink Streptavidin-allophycocyanin and 2 nM Europium-anti-H3K9me2 antibody.

Take `Cn1ncc2ccc(COc3ccnn3-c3cc(C(=O)O)ccn3)cc21` [Example 50, 2-{5-[(1-methyl-1H-indazol-6-yl)methoxy]-1H-pyrazol-1-yl}pyridine-4-carboxylic acid]: the IC50 is under 100 nM at Jarid1B, over 10000 nM in the test on KDM5A/B, under 100 nM at Jarid1A and 100 to 1000 nM against FBXL10.
For the compound `Cc1cc(Cl)ccc1COc1ccnn1-c1cc(C(=O)O)ccn1` [Example 89, 2-[5-[(4-chloro-2-methylphenyl)methoxy]pyrazol-1-yl]pyridine-4-carboxylic acid], the IC50 against JMJD2C is 100 to 1000 nM; at Jarid1B, under 100 nM; with KDM5A/B, under 100 nM; on Jarid1A it was under 100 nM; on FBXL10, 100 to 1000 nM.
In the case of `O=C(O)c1ccnc(-n2nccc2OCc2ccc(Cl)cc2OCc2ccc(F)cc2)c1` [Example 117, 2-[5-[[4-chloro-2-[(4-fluorophenyl)methoxy]phenyl]methoxy]pyrazol-1-yl]pyridine-4-carboxylic acid], the IC50 against JMJD2C lay within 1000 to 10000 nM; at Jarid1B, 100 to 1000 nM; in the test with KDM5A/B, 1000 to 10000 nM; on Jarid1A, 100 to 1000 nM; at JMJD2A, 1000 to 10000 nM; against FBXL10 it was 1000 to 10000 nM.
Consider `CCc1cc(Cl)ccc1COc1ccnn1-c1cc(C(=O)O)ccn1` [Example 127, 2-[5-[(4-chloro-2-ethylphenyl)methoxy]pyrazol-1-yl]pyridine-4-carboxylic acid], for which the IC50 lay in the range of 1000 to 10000 nM on JMJD2C, 100 to 1000 nM at Jarid1B, 1000 to 10000 nM in the test with KDM5A/B and 100 to 1000 nM against Jarid1A.
`COc1cc(C)ccc1COc1ccnn1-c1cc(C(=O)O)ccn1` [Example 133, 2-[5-[(2-methoxy-4-methylphenyl)methoxy]pyrazol-1-yl]pyridine-4-carboxylic acid]: the IC50 on JMJD2C is 100 to 1000 nM; against Jarid1B, under 100 nM; in the test on KDM5A/B, 100 to 1000 nM; against Jarid1A it was under 100 nM; at JMJD2A, 100 to 1000 nM; against FBXL10, 1000 to 10000 nM.
